For data set [1], the target named is T1, amine oxidase, copper containing 3 (AOC3) (Homo sapiens, UniProt Q16853).
T1 sequence (Q16853 1-763): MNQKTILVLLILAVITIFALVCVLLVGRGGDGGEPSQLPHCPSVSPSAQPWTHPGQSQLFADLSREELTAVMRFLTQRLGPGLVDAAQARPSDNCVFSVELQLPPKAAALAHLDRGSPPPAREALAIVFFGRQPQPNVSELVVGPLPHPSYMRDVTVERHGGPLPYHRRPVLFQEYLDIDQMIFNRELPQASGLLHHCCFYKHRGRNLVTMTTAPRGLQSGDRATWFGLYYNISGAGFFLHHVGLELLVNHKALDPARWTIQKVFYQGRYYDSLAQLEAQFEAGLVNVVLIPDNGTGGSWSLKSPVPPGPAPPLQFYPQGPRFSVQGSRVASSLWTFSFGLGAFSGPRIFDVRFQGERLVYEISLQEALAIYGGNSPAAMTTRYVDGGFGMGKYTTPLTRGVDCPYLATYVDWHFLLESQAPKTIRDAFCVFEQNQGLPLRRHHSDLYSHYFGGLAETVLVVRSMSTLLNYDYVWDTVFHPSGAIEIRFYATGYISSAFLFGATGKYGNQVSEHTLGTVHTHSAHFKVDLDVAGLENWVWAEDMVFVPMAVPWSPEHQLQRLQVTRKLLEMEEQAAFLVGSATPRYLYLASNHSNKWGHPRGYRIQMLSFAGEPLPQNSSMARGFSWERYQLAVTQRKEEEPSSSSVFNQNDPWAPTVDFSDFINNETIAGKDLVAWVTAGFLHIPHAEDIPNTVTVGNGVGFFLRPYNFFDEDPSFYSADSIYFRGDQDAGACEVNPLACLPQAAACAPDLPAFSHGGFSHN
Kind of data set: Enzyme inhibiting activity of FP-1113 versus thiamine (FIG. 3). How it is done:
The enzyme inhibiting activity was tested as described above.

For data set [2], the target named is serum VAP-1/SSAO (Homo sapiens, UniProt Q16853). How it is done:
Amine oxidase activity was assayed radiochemically using [7-^14C]-benzylamine hydrochloride (spec. act. 57 mCi/mmol, Amersham) as a substrate and 25 microliters of serum. […] Potential inhibition of serum VAP-1/SSAO enzymatic activity was measured in presence of indicated concentrations of thiamine. Finally, enzymatic activity of serum VAP-1/SSAO of six volunteers was measured before and after eating vitamin B1 100 mg/day for 5 to 9 days. Similarly serum VAP-1/SSAO activity of four volunteers eating benfothiamine 200 mg/day for four days was measured.

In data set [3] the target is T2, SSAO activity of VAP-1 transfected CHO cells (Homo sapiens, UniProt Q16853).
T2 construct: expressed in transfected cells; host or cells: CHO cells
T2 sequence (Q16853 1-763): T1 sequence (Q16853 1-763)
The data set is described as follows: Fluorometric detection of SSAO-mediated H2O2 formation (Amplex Red). The data set is classed as cell-based. The settings on record: for Inhibition of SSAO activity (controls): 1 mg/ml, VAP-1 transfected CHO cells. How it is done: Molecular Probes Europe BV), a highly sensitive and stable probe for H2O2. […] Catalytic reaction was initiated by addition of benzylamine as substrates and H2O2-detecting mixture containing horseradish peroxidase (final concentration 0.8 U/ml) and Amplex Red reagent (60 μM). The plates were incubated for 1-2 hours at 37° C. in the final volume of 250 μl, the bathing medium was clarified by centrifugation and placed in aliquots (200 μl) into white non-phosphorescent microplates (Cliniplate). Fluorescence intensity of the samples was measured (excitation, 545 nm; emission, 590 nm; Tecan ULTRA fluoropolarometer) and H2O2 concentration was calculated from calibration curves generated by serial dilutions of either standard H2O2 or resorufin, the product of the Amplex Red reaction (Molecular Probes).

The target in data set [4] is T3, serum VAP-1/SSAO (Homo sapiens, UniProt Q16853).
T3 sequence (Q16853 27-763 limits assumed): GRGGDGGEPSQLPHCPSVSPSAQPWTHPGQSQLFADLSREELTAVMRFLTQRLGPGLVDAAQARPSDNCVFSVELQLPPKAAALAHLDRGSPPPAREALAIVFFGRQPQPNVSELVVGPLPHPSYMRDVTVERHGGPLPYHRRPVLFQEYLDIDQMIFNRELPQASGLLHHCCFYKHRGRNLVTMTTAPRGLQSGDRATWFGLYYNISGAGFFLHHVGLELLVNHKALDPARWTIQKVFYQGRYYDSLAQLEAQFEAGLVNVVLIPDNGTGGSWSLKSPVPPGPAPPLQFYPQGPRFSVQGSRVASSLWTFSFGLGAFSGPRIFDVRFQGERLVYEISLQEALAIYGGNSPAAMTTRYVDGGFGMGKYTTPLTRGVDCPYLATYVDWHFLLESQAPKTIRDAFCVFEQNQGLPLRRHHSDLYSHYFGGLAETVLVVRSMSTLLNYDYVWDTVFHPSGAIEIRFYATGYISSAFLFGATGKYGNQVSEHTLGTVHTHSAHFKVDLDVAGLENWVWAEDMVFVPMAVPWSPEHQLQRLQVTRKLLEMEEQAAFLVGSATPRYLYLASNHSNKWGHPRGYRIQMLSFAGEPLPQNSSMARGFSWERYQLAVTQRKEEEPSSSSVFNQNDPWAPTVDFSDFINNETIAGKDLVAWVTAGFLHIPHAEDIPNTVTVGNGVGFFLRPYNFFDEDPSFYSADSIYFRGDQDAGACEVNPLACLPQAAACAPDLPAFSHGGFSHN
Kind of data set: Serum VAP-1/SSAO enzymatic activity of volunteers before and after oral intake.

Data set [5] concerns mice. The data set is described as follows: Systolic arterial blood pressure and heart rate, tail cuff method. In kind it is in vivo. The conditions noted are these: methylamine supplementation. The method, then: Systolic arterial blood pressure and heart rate were measured in all of the groups using the tail cuff method. […] A trend for elevated blood pressure was also found with the transgene alone.

The test system of data set [6] is mice. Kind of data set: Aorta surface area positive for Oil Red O staining (atherosclerosis). The data set is classed as in vivo. The conditions noted are these: methylamine supplementation, versus untreated controls. How it is done: The percentage of aorta surface area positive for Oil Red O staining was determined for the mice in each group.
The test system of data set [7] is mice. The data set is described as follows: Glycosylated hemoglobin (HbAlc) in blood of fasted mice. The data set is classed as in vivo. The settings on record: oral methylamine supplementation, 57-59 week old mice. The method, then: The increases in blood glucose over fasting blood glucose levels at 30, 60, 90, and 120 minutes after glucose challenge (2.0 g IP glucose/kg body weight) are expressed as mean+SEM. (A) Glucose challenge of 26 week old non-transgenic (open symbols) and mTIEhVAP-1 transgenic mice (filled symbols) with normal tap water (solid lines) or with methylamine supplemented water (dashed lines). Significant effects on the rate of glucose clearance were identified by comparing the areas under the curve (AUC) of individual mice with an ANOVA (methylamine p=0.0002 and methylamine/transgene interaction p=0.046) and by comparing glucose levels at individual time points with unpaired Student's t-tests (asterisks, p<0.01 versus non-transgenic mice with normal water; crosses, p<0.02 versus non-transgenic mice with methylamine). (B) Glucose challenge of 10-12 week old transgenic mice with normal tap water (solid line) followed by 16 days of treatment with methylamine supplemented water (squares and dashed lines), and methylamine supplemented water as well as SSAO inhibitor injections (triangles and dashed lines). […] (C) The mean±SEM percent of glycosylated hemoglobin (HbAlc) was determined from the blood of fasted, 57-59 week old non-transgenic (white bars) and transgenic (black bars) mice with (gray strips) or without oral methylamine supplementation. […]

Data set [8] relates to mTIEhVAP-1 transgenic mice. Kind of data set: Glucose challenge of mTIEhVAP-1 transgenic and non-transgenic mice. The settings on record: methylamine supplemented water; 2.0 g IP glucose/kg. In kind it is in vivo. The method, then:
The increases in blood glucose over fasting blood glucose levels at 30, 60, 90, and 120 minutes after glucose challenge (2.0 g IP glucose/kg body weight) are expressed as mean±SEM. FIG. 1A: Glucose challenge of 26 week old non-transgenic (open symbols) and mTIEhVAP-1 transgenic mice (filled symbols) with normal tap water (solid lines) or with methylamine supplemented water (dashed lines). FIG. 1B: Glucose challenge of 10-12 week old transgenic mice with normal tap water (solid line) followed by 16 days of treatment with methylamine supplemented water (squares and dashed lines), and methylamine supplemented water as well as SSAO inhibitor injections (triangles and dashed lines). FIG. 1C: The mean±SEM percent of glycosylated hemoglobin (HbAlc) was determined from the blood of fasted, 57-59 week old non-transgenic (white bars) and transgenic (black bars) mice with (gray strips) or without oral methylamine supplementation. […]
The increases in blood glucose over fasting blood glucose levels at 30, 60, 90, and 120 minutes after glucose challenge (2.0 g IP glucose/kg body weight) are expressed as mean+SEM. […] (C) The mean±SEM percent of glycosylated hemoglobin (HbAlc) was determined from the blood of fasted, 57-59 week old non-transgenic (white bars) and transgenic (black bars) mice with (gray strips) or without oral methylamine supplementation. […]

The mark [9] stands for this setting: volunteers, 100 mg/day for 5 to 9 days.

Several values for one entry are separate records, joined by “and”; a condition that tells them apart may be missing. Equal values may be shown once. Read-outs that look alike come from different tables or passages of the source.

For the compound `Cc1c(CCO)sc[n+]1Cc1ccccc1N.Cl.[Cl-]` [FP-1113, 3-(2-aminobenzyl)-5-(2-hydroxyethyl)-4-methyl-thiazolium Chloride Hydrochloride], in data set [1], the “SSAO inhibition compared with thiamine” value was “stronger SSAO-inhibitor than thiamine”.

For orientation: inhibition means the drop in the measured response relative to a control, in per cent. Higher therefore signals strong suppression. `Cc1ncc(C[n+]2csc(CCO)c2C)c(N)n1` [Thiamine, thiamine]: the “Decrease of serum VAP-1/SSAO activity in vitro” value was found to be 87% at serum VAP-1/SSAO [2] (1 mg/ml), 32% on serum VAP-1/SSAO [2] (200 micrograms/ml), 39% on serum VAP-1/SSAO [2] (400 micrograms/ml) and 70% on serum VAP-1/SSAO [2] (800 micrograms/ml). Also, 63 µg/mL produced 10.5 ± 8.5% inhibition in data set [3] (CHO, thiamine 63 μg/ml, VAP-1 transfected cells). Further, in data set [3] (CHO, thiamine 125 μg/ml, VAP-1 transfected cells), 125 µg/mL produced 26.5 ± 11% inhibition. The compound also displayed an inhibition at 175 µg/mL in data set [3] (CHO, thiamine 175 μg/ml, VAP-1 transfected cells) of 35.5 ± 2.5%. In data set [3] (CHO, thiamine 250 μg/ml, VAP-1 transfected cells), this compound gave an inhibition at 250 µg/mL of 42 ± 2%. For the same compound, in data set [3] (CHO, thiamine 375 μg/ml, VAP-1 transfected cells), the inhibition at 375 µg/mL amounted to 47 ± 9%. This compound yielded an inhibition at 500 µg/mL in data set [3] (CHO, thiamine 500 μg/ml, VAP-1 transfected cells) of 61.5 ± 2.5%. At serum VAP-1/SSAO [4] (setting [9]), the “Decrease of VAP-1 enzyme activity at the end of the experiment, mean of responders” value is listed as 19%. Besides, the Volunteers responding entry on serum VAP-1/SSAO [4] (setting [9]) was “Four of the six volunteers responded”. The “Decrease of VAP-1 enzyme activity at the end of the experiment, individual responders” value on serum VAP-1/SSAO [4] (volunteers, 100 mg/day for 5 to 9 days, listed as vitamin B1) is 25% and 2% and 32% and 16%.

Regarding `CC1(C)S[C@@H]2[C@H](NC(=O)[C@H](N)c3ccccc3)C(=O)N2[C@H]1C(=O)O` [ampicillin], the “Inhibition of SSAO activity (controls)” value in data set [3] is given as “did not inhibit the activity”.

On to `C/C(=C(\CCOP(=O)(O)O)SC(=O)c1ccccc1)N(C=O)Cc1cnc(C)nc1N` [benfothiamine, benfotiamine], for which the “Decrease of SSAO activity, each individual” value at serum VAP-1/SSAO [4] (four volunteers, 200 mg/day for four days) is 9% and 24% and 8% and 27%.

`CN` [methylamine]: in the data set with mice [5], the Heart rate entry is recorded as “did not affect heart rate” and the “Systolic arterial blood pressure” value was “significantly elevated blood pressure”. Moreover, in the data set with mice [6], the “Percentage of lesion formation in aorta” value was “increased the percentage of lesion formation”. Also, the HbAlc levels entry in the data set on mice [7] is reported as “decreased”. Further, the “Glucose tolerance after glucose challenge” value in data set [8] is “enhance glucose tolerance”.

Turning to penicillin, the “Inhibition of SSAO activity (controls)” value in data set [3] is “did not inhibit the activity”.
